According to the supplement of paper PMC10307832:

Key:
Assay in all cases: relative viability (nuclei count vs DMSO), 5 days (fraction); higher = more cells survive
Cediranib + Trametinib = compound: COc1cc2c(Oc3ccc4[nH]c(C)cc4c3F)ncnc2cc1OCCCN1CCCC1 [Cediranib] + CC(=O)Nc1cccc(-n2c(=O)n(C3CC3)c(=O)c3c(Nc4ccc(I)cc4F)n(C)c(=O)c(C)c32)c1 [Trametinib] (partner 0.02 µM)
Outline: (§1)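 Five library-drug doses in √10 steps were combined with a fixed anchor-drug dose, or a single drug was given alone, by pin tool to lung cancer cell lines in 1536-well plates the day after seeding. Nuclei were stained and counted after 5 days. Relative viability is the nuclei count in treated wells over that in vehicle wells, taken as the median of duplicate plates.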

Decitabine + Bortezomib = compound: Nc1ncn([C@H]2C[C@H](O)[C@@H](CO)O2)c(=O)n1 [Decitabine] + CC(C)C[C@H](NC(=O)[C@H](Cc1ccccc1)NC(=O)c1cnccn1)B(O)O [Bortezomib] (partner 0.002 µM)
Outline: as §1

Decitabine + Tozasertib = compound: Nc1ncn([C@H]2C[C@H](O)[C@@H](CO)O2)c(=O)n1 [Decitabine] + Cc1cc(Nc2cc(N3CCN(C)CC3)nc(Sc3ccc(NC(=O)C4CC4)cc3)n2)n[nH]1 [Tozasertib] (partner 0.1 µM)
Outline: as §1

[1] = compound: O=C(C[C@H]1NCCC[C@@H]1O)Cn1cnc2cc(Br)c(Cl)cc2c1=O (racemic) [Halofuginone] + CC1(C)CCC(c2ccc(Cl)cc2)=C(CN2CCN(c3ccc(C(=O)NS(=O)(=O)c4ccc(N[C@H](CCN5CCOCC5)CSc5ccccc5)c(S(=O)(=O)C(F)(F)F)c4)cc3)CC2)C1 [Navitoclax] (partner 0.5 µM)
Outline: as §1

ChaGo-K-1 gave a relative viability (Cediranib + Trametinib; first compound 0.04 µM) of 0.875, a relative viability (Cediranib + Trametinib; first compound 0.1265 µM) of 0.821 and a relative viability (Cediranib + Trametinib; first compound 0.4 µM) of 0.878. It also gave a relative viability (Cediranib + Trametinib; first compound 1.265 µM) of 0.868, a relative viability (Cediranib + Trametinib; first compound 4 µM) of 0.909 and a relative viability (Decitabine + Bortezomib; first compound 0.04 µM) of 0.768. The relative viability (Decitabine + Bortezomib; first compound 0.1265 µM) was 0.756, the relative viability (Decitabine + Bortezomib; first compound 0.4 µM) was 0.579 and the relative viability (Decitabine + Bortezomib; first compound 1.265 µM) was 0.585. For the same cell line, the relative viability (Decitabine + Bortezomib; first compound 4 µM) was 0.566, the relative viability (Decitabine + Tozasertib; first compound 0.04 µM) was 0.23 and the relative viability (Decitabine + Tozasertib; first compound 0.1265 µM) was 0.238. It also gave a relative viability (Decitabine + Tozasertib; first compound 0.4 µM) of 0.189, a relative viability (Decitabine + Tozasertib; first compound 1.265 µM) of 0.176 and a relative viability (Decitabine + Tozasertib; first compound 4 µM) of 0.208. It also gave a relative viability ([1]; first compound 0.001 µM) of 0.88, a relative viability ([1]; first compound 0.003162 µM) of 0.587 and a relative viability ([1]; first compound 0.01 µM) of 1.01. It also gave a relative viability ([1]; first compound 0.03162 µM) of 0.859 and a relative viability ([1]; first compound 0.1 µM) of 0.975.
Cell Line HCC-827 has a relative viability (Cediranib + Trametinib; first compound 0.04 µM) of 0.6, a relative viability (Cediranib + Trametinib; first compound 0.1265 µM) of 0.791 and a relative viability (Cediranib + Trametinib; first compound 0.4 µM) of 0.529. It also gave a relative viability (Cediranib + Trametinib; first compound 1.265 µM) of 0.539, a relative viability (Cediranib + Trametinib; first compound 4 µM) of 0.497 and a relative viability (Decitabine + Bortezomib; first compound 0.04 µM) of 0.748. For the same cell line, the relative viability (Decitabine + Bortezomib; first compound 0.1265 µM) was 0.567, the relative viability (Decitabine + Bortezomib; first compound 0.4 µM) was 0.399 and the relative viability (Decitabine + Bortezomib; first compound 1.265 µM) was 0.36. For the same cell line, the relative viability (Decitabine + Bortezomib; first compound 4 µM) was 0.372, the relative viability (Decitabine + Tozasertib; first compound 0.04 µM) was 0.253 and the relative viability (Decitabine + Tozasertib; first compound 0.1265 µM) was 0.265. It also gave a relative viability (Decitabine + Tozasertib; first compound 0.4 µM) of 0.219, a relative viability (Decitabine + Tozasertib; first compound 1.265 µM) of 0.221 and a relative viability (Decitabine + Tozasertib; first compound 4 µM) of 0.224. It also gave a relative viability ([1]; first compound 0.001 µM) of 1.05, a relative viability ([1]; first compound 0.003162 µM) of 1.05 and a relative viability ([1]; first compound 0.01 µM) of 1.01. For the same cell line, the relative viability ([1]; first compound 0.03162 µM) was 1.01 and the relative viability ([1]; first compound 0.1 µM) was 0.852.
Cell Line NCI-H1993 has a relative viability (Cediranib + Trametinib; first compound 0.1265 µM) of 0.48, a relative viability (Cediranib + Trametinib; first compound 0.4 µM) of 0.56 and a relative viability (Cediranib + Trametinib; first compound 1.265 µM) of 0.504. For the same cell line, the relative viability (Cediranib + Trametinib; first compound 4 µM) was 0.641, the relative viability (Decitabine + Bortezomib; first compound 0.04 µM) was 0.925 and the relative viability (Decitabine + Bortezomib; first compound 0.1265 µM) was 0.898. For the same cell line, the relative viability (Decitabine + Bortezomib; first compound 0.4 µM) was 0.839, the relative viability (Decitabine + Bortezomib; first compound 1.265 µM) was 0.777 and the relative viability (Decitabine + Bortezomib; first compound 4 µM) was 0.672. For the same cell line, the relative viability (Decitabine + Tozasertib; first compound 0.04 µM) was 0.682, the relative viability (Decitabine + Tozasertib; first compound 0.1265 µM) was 0.591 and the relative viability (Decitabine + Tozasertib; first compound 0.4 µM) was 0.683. The relative viability (Decitabine + Tozasertib; first compound 1.265 µM) was 0.568, the relative viability (Decitabine + Tozasertib; first compound 4 µM) was 0.553 and the relative viability ([1]; first compound 0.001 µM) was 1.04. It also gave a relative viability ([1]; first compound 0.003162 µM) of 0.875, a relative viability ([1]; first compound 0.01 µM) of 1.04 and a relative viability ([1]; first compound 0.03162 µM) of 0.874. It also gave a relative viability ([1]; first compound 0.1 µM) of 0.668.
In the case of NCI-H647, the relative viability (Cediranib + Trametinib; first compound 0.04 µM) is reported as 0.48, the relative viability (Cediranib + Trametinib; first compound 0.1265 µM) is reported as 0.428 and the relative viability (Cediranib + Trametinib; first compound 0.4 µM) is reported as 0.441. It also gave a relative viability (Cediranib + Trametinib; first compound 1.265 µM) of 0.515, a relative viability (Cediranib + Trametinib; first compound 4 µM) of 0.491 and a relative viability (Decitabine + Bortezomib; first compound 0.04 µM) of 0.728. The relative viability (Decitabine + Bortezomib; first compound 0.1265 µM) was 0.821, the relative viability (Decitabine + Bortezomib; first compound 0.4 µM) was 0.344 and the relative viability (Decitabine + Bortezomib; first compound 1.265 µM) was 0.241. For the same cell line, the relative viability (Decitabine + Bortezomib; first compound 4 µM) was 0.209, the relative viability (Decitabine + Tozasertib; first compound 0.04 µM) was 0.262 and the relative viability (Decitabine + Tozasertib; first compound 0.1265 µM) was 0.192. It also gave a relative viability (Decitabine + Tozasertib; first compound 0.4 µM) of 0.172, a relative viability (Decitabine + Tozasertib; first compound 1.265 µM) of 0.0834 and a relative viability (Decitabine + Tozasertib; first compound 4 µM) of 0.105. It also gave a relative viability ([1]; first compound 0.001 µM) of 1.15, a relative viability ([1]; first compound 0.003162 µM) of 1.09 and a relative viability ([1]; first compound 0.01 µM) of 1.13. For the same cell line, the relative viability ([1]; first compound 0.03162 µM) was 0.829 and the relative viability ([1]; first compound 0.1 µM) was 0.415.
